Reference: patent US20140004243A1, “SALTY TASTE ENHANCER” (AJINOMOTO CO., INC., priority 2011, published 2014)

biological target: T1, Human ENaC δ, β and γ subunit (Homo sapiens, UniProt P51168+P51170+P51172); test: Measurement of ENaC activation potency (MED) in ENaC-expressing oocyte, Two Electrode Voltage Clamp; format: cell-based; details: minimum effective dose at which current started to increase; ENaC-expressing African clawed frog oocyte; smaller MED = higher ENaC activation potency
T1 construct: expressed in transfected cells; host or cells: Xenopus laevis (African clawed frog) oocytes injected with cRNA
T1 sequence (P51172 1-802): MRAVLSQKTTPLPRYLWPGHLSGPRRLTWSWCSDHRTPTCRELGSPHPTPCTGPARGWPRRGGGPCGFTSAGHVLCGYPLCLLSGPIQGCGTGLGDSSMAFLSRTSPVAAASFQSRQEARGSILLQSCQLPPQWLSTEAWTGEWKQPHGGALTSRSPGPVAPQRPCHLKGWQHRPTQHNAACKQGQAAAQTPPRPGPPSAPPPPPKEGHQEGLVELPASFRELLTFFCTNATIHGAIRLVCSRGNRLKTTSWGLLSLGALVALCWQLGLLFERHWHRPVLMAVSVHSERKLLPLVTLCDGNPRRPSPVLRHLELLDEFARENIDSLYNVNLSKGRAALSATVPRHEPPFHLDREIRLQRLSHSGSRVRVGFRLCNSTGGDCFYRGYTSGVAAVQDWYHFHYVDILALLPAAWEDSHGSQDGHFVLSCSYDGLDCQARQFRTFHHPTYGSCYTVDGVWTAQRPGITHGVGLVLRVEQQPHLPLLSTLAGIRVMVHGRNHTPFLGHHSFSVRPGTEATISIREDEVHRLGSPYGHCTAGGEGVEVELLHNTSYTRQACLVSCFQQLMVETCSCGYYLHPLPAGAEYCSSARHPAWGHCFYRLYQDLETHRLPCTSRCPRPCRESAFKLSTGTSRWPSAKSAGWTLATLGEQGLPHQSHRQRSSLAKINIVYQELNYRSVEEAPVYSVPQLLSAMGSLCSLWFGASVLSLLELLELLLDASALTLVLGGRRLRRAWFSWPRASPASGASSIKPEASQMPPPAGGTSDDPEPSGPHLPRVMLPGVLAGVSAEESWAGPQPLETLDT
T1 sequence (P51168 1-640): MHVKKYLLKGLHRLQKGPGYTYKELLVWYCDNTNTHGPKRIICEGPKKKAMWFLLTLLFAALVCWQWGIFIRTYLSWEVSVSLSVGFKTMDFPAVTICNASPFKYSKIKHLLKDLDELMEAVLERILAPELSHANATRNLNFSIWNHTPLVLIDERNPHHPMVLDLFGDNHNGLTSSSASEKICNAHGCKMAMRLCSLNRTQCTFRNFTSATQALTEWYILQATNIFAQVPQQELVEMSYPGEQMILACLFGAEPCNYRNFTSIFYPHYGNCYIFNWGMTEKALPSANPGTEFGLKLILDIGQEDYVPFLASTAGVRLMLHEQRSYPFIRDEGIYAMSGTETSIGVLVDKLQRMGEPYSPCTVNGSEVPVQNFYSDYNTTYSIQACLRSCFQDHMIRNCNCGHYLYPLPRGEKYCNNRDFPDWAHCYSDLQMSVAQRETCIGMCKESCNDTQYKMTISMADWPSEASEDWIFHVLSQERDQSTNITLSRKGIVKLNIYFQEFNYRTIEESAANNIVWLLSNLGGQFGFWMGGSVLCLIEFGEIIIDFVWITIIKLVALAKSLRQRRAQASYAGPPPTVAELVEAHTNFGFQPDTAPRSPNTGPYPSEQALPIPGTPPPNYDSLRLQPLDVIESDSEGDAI
T1 sequence (P51170 1-649): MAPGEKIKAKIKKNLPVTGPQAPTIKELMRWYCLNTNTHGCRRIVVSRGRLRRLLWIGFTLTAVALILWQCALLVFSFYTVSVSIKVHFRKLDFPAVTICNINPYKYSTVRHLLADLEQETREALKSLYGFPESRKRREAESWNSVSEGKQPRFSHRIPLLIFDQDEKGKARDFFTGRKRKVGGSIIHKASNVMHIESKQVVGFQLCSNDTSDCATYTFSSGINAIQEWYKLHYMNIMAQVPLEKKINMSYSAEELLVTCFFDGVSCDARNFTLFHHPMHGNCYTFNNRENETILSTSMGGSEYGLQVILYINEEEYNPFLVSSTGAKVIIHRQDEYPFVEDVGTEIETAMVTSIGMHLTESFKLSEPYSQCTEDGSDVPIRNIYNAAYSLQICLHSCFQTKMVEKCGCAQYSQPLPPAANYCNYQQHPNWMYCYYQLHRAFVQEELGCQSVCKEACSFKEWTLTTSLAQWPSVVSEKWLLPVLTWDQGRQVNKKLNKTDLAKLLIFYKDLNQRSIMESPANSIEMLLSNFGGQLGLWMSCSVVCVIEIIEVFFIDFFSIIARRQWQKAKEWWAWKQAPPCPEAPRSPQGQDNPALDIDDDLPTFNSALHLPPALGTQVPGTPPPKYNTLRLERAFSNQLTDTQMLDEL
Experimental: ENaC activation current value, namely, the inward current in ENaC-expressing oocyte was measured as follows.
According to the method described in Motonao Nakamura, Takao Shimizu: Experiment of African clawed frog oocyte, Experimental Medicine Vol. 11, No. 3, 224-232 (1993), oocyte was collected from African clawed frog, […], and the current value was measured by a Two Electrode Voltage Clamp technique. In the present invention, ND96 (96 mM NaCl, 2 mM KCl, 1 mM MgCl2, 5 mM Hepes, 1.8 mM CaCl2, pH 7.6) was used instead of MBS buffer in the above-mentioned document. Injector NANOLITER 2000 manufactured by World Precision Instruments was used for microinjection, OpusXpress 6000A manufactured by Molecular Devices was used for current value measurement by a Two Electrode Voltage Clamp technique, and Clampfit 10.2 software manufactured by Molecular Devices was used for data analysis.
Human ENaC δ, β and γ subunit genes shown by SEQ ID NOs: 1, 2 and 3, respectively, in the Sequence Listing were each cloned into a plasmid vector, and used as a template DNA for cRNA synthesis. cRNA was synthesized using MEGAscript kit manufactured by Ambion and according to the method of the manual of the manufacturer.
A mixture of the same amount of ENaC […] cRNA (0.4 to 0.8 μg/μL), and β and γ subunits cRNA (0.4 μg/μL) was injected into the oocyte of African clawed frog at […] per oocyte, and the oocyte was cultured for 16 hr-72 hr. Thereafter, the oocyte was set on a measuring apparatus OpusXpress 6000A, the electrodes were inserted into the oocyte, the voltage was clamped at a level lower by −30 mV than the resting membrane potential by a Two Electrode Voltage Clamp technique, and the current value was measured.
To measure the ENaC activation potency, oocyte was stimulated with each test compound, and the minimum effective dose (hereinafter to be abbreviated as MED) of the compound at the time point when the electric current started to increase was measured. In this case, whichever smaller value of the minimum effective dose of the stimulation compound that increased the current value by not less than 10%, and the minimum effective concentration of the compound that increased, by not less than 25%, the electric current increase value due to the stimulation by 5 μM capsazepine (CAS NO.: 138977-28-3), as compared to the current value before addition of the compound and without stimulation, was taken as MED. A smaller MED means higher ENaC activation potency.
Each test compound was directly dissolved in ND96, or first dissolved in dimethyl sulfoxide (DMSO) to 100 mM, and then prepared by diluting the solution with ND96 to a concentration used for the evaluation. The concentration of the test compound in ND96 was prepared to various concentrations within the range of 0.1 nM to 300 μm.
ND96 as a perfusion fluid was flown at a rate of 0.5 mL/min through the measuring apparatus OpusXpress 6000A on which ENaC-expressing oocyte was set, the perfusion fluid was temporarily stopped every 3 minutes to add a test compound solution (0.25 mL) dissolved in ND96 at a rate of 0.5 mL/min. In this way, the test compound was contacted with ENaC-expressing oocyte, and whether ENaC is activated by the compound was examined by measuring the current value. After addition of the test compound, feeding of the perfusion fluid was resumed to wash away the compound to be ready for the next addition of the compound.
The compound was added successively from a low concentration to a high concentration to stimulate ENaC-expressing oocyte. The concentrations actually added was, for example, 1 nM, 3 nM, 10 nM, 30 nM, 100 nM, 300 nM; 1 μM, 3 μM, 10 μm, 30 μm, 100 μm, 300 μm; 1.2 μM, 6 μM, 30 μm, 150 μm of one test compound. The compound was added from low concentrations to high concentrations at 3 min intervals. […]

MED, 3.3 µM:
N#Cc1ccc(CNC(=S)NCCc2ccccc2)cc1 [Example 65]
C[C@H](NC(=S)N[C@H](C)c1ccccc1)c1ccccc1 [Example 24]

MED, 30 µM:
O=C1C(c2ccccc2)NC(=S)N1CCc1ccccc1 (stereo not shown) [Example 49]
COc1cc2c(cc1OC)CN(C(=S)NCCc1ccccc1)CC2 [Example 4]
COC(=O)c1ccccc1/C=N/NC(=S)N[C@H](C)c1ccccc1 [Example 96, methyl 2-{(E)-[4-((R)-1-phenylethyl)thiosemicarbazono]methyl}benzoate]
S=C(NCCc1ccccc1)N(Cc1ccccc1)Cc1ccccc1 [Example 22]
NC(=O)CNC(=S)NCc1ccccc1 [Example 53]

MED, 0.3 µM:
C[C@@H](NC(=S)N[C@@H](Cc1ccccc1)C(=O)O)c1cccc(O)c1 [Example 108]
C[C@@H](NC(=S)N[C@@H](Cc1ccc(O)cc1)C(=O)O)c1cccc(O)c1 [Example 110]
C[C@@H](NC(=S)N[C@H](Cc1ccccc1)C(=O)O)c1cccc(O)c1 [Example 107]

MED, 10 µM:
COC[C@@H](Cc1ccccc1)NC(=S)NCc1ccccc1 [Example 84]
S=C(NCc1ccccc1)N1CCc2ccccc2C1 [Example 27]
Cc1ccc(S(=O)(=O)Nc2cccc(CNC(=S)NCCc3ccccc3)c2)cc1 [Example 87]
S=C(CCCc1ccccc1)NCc1ccccc1 [Example 80, N-benzyl-4-phenylbutanethioamide]
S=C(NCCc1ccccc1)NCCc1ccccc1 [Example 13]
C[C@H](NC(=S)NCCc1ccccc1)c1ccccc1 [Example 12]
S=C(NCc1ccccc1)NCC(c1ccccc1)c1ccccc1 [Example 59]
S=C(NCCc1ccccc1)NCC12CC3CC(CC(C3)C1)C2 [Example 32]
CC(C)(C)OC(=O)Nc1cccc(CNC(=S)NCCc2ccccc2)c1 [Example 78, tert-butyl 3-{[3-(2-phenylethyl)thioureido]methyl}phenylcarbamate]

MED, 0.06 to 0.1 µM:
C[C@@H](NC(=S)NCC(O)c1cccc(O)c1O)c1cccc(O)c1 (stereo partly shown) [Example 111]
C[C@@H](NC(=S)NCC(O)c1cc(Cl)ccc1O)c1cccc(O)c1 (stereo partly shown) [Example 115]

MED, 0.1 µM:
C[C@@H](NC(=S)Nc1ccccc1C(=O)O)c1cccc(O)c1 [Example 118]

MED, 3 to 10 µM:
CN(CCc1ccccc1)C(=S)NCc1ccccc1 [Example 66]
S=C(NCCc1ccccc1Cl)NCc1ccccc1 [Example 73]

MED, 3 µM:
OC[C@H](NC(=S)NCCc1ccccc1)c1ccccc1 [Example 50]
CC(C)(C)OC(=O)NCC(=O)Nc1cccc(CNC(=S)NCCc2ccccc2)c1 [Example 82, tert-butyl (3-{[3-(2-phenylethyl)thioureido]methyl}phenylcarbamoyl)methylcarbamate]
Oc1ccc(CNC(=S)NCc2ccccc2)cc1O [Example 45]
Oc1cc2c(cc1O)CN(C(=S)NCCc1ccc(Cl)cc1)CC2 [Example 2]
NC(=O)[C@@H](NC(=S)NCCc1ccccc1)c1ccccc1 [Example 103]

MED, 0.06 µM:
C[C@@H](NC(=S)NCCc1ccccc1O)c1cccc(O)c1 [Example 89, 1-[2-(2-hydroxyphenyl)ethyl]-3-[(R)-1-(3-hydroxyphenyl)ethyl]thiourea]

MED, 0.6 to 1 µM:
Oc1ccccc1CCNC(=S)N[C@@H]1CCc2ccccc21 [Example 88]

MED, 1 µM:
COc1ccc([C@@H](C)NC(=S)NCCc2ccccc2O)cc1OC [Example 100]
O=C(O)[C@@H](NC(=S)NCCc1ccccc1O)c1ccccc1 [Example 102, (S)-2-{3-[2-(2-hydroxyphenyl)ethyl]thioureido}-2-phenylacetic acid]
OC[C@@H](Cc1ccccc1)NC(=S)NCc1ccccc1 [Example 52]
ON(Cc1ccccc1)C(=S)NCCc1ccccc1 [Example 69]
S=C(NCCc1ccccc1)NCc1ccccc1 [Example 8]
S=C(NCCc1ccccc1)NCc1cccnc1 [Example 31]
